Test results: ChEMBL document CHEMBL5321215, “Discovery of quinazolin-4(3H)-one derivatives as novel AChE inhibitors with anti-inflammatory activities” (Eur J Med Chem, 2023)
Calls of active or inactive are those of the source. The rule behind the calls is not given here.

What was measured:
Acetylcholinesterase [1] = target: Acetylcholinesterase (Electrophorus electricus, UniProt O42275); assay: Inhibition of electric eel AChE using acetylthiocholine iodide as substrate incubated for 20 mins by Ellman's method
[2] = target: Acetylcholinesterase (Electrophorus electricus) (UniProt O42275); assay: Inhibition of electric eel AChE using acetylthiocholine iodide as substrate at 20 uM incubated for 20 mins by Ellman's method relative to control
[3] = target: Cholinesterase (Equus caballus) (UniProt P81908); assay: Inhibition of equine serum BChE at 20 uM by Ellman's method relative to control; type: cell-free
Cholinesterase [4] = target: T1, Cholinesterase (Equus caballus, UniProt P81908); assay: Inhibition of equine serum BChE by Ellman's method; type: cell-free
RAW264.7 [5] = assay: Antiinflammatory activity against mouse RAW264.7 cells assessed as inhibition of LPS-induced nitric oxide production at 20 uM preincubated for 24 hrs followed by LPS stimulation by Griess reagent-based colorimetric assay relative to control; type: functional; design: scale not given: the % may be the effect or the level left
RAW264.7 [6] = assay: Antiinflammatory activity against mouse RAW264.7 cells assessed as inhibition of LPS-induced nitric oxide production preincubated for 24 hrs followed by LPS stimulation by Griess reagent-based colorimetric assay; type: functional, cell-based
Acetylcholinesterase [7] = target: Acetylcholinesterase (Homo sapiens, UniProt P22303); assay: Inhibition of AChE (unknown origin)
Cholinesterase [8] = target: Cholinesterase (Homo sapiens, UniProt P06276); assay: Inhibition of BChE (unknown origin)
[9] = target: Cholinesterase (Equus caballus) (UniProt P81908); assay: Non competitive inhibition of equine serum BChE assessed as decrease in Vmax with constant Km by Lineweaver-Burk plot analysis; type: cell-free
BV-2 [10] = assay: Cytotoxicity against mouse BV-2 cells assessed as reduction in cell viability at 10 uM incubated for 24 hrs by CCK-8 assay; type: toxicity, cell-based; conditions: bv-2, 24 h
[11] = target: Acetylcholinesterase (Electrophorus electricus) (UniProt O42275); assay: Non competitive inhibition of Electric eel AChE using acetylthiocholine iodide as substrate assessed as decrease in Vmax with constant Km by Lineweaver-Burk plot analysis
Cholinesterase [12] = target: T1, Cholinesterase; assay: Mixed type inhibition of equine serum BChE assessed as inhibition constant by Lineweaver-Burk plot analysis; type: cell-free
[13] = target: Cholinesterase (Equus caballus) (UniProt P81908); assay: Mixed type inhibition of equine serum BChE assessed as increase in slope and Y-intercept at increasing concentration by Lineweaver-Burk plot analysis; type: cell-free
[14] = target: Cholinesterase (Equus caballus) (UniProt P81908); assay: Mixed type inhibition of equine serum BChE assessed as Kis by Lineweaver-Burk plot analysis; type: cell-free
BV-2 [15] = assay: Inhibition of NF-kappaB pathway in LPS-induced mouse BV-2 cells assessed as reduction in phosphorylated p65 protein expression level at 10 uM incubated for 24 hrs by Western blot analysis; type: cell-based
[16] = target: NACHT, LRR and PYD domains-containing protein 3 (Mus musculus) (UniProt Q8R4B8); assay: Inhibition of NLRP3 inflammasome in LPS-induced mouse BV-2 cells assessed as decrease in NLRP3 protein expression at 10 uM incubated for 24 hrs by Western blot analysis; type: cell-based
BV-2 [17] = assay: Antiinflammatory activity against mouse BV-2 cells assessed as reduction in LPS-induced CCL2 mRNA expression measured after 24 hrs by qRT-PCR analysis; type: functional, cell-based; conditions: dose 1.25-10 µM
BV-2 [18] = assay: Antiinflammatory activity against mouse BV-2 cells assessed as reduction in LPS-induced TNF-alpha mRNA expression measured after 24 hrs by qRT-PCR analysis; type: functional, cell-based; conditions: dose 1.25-10 µM
BV-2 [19] = assay: Effect on JNK protein level in LPS-induced mouse BV-2 cells at 10 uM incubated for 24 hrs by Western blot analysis; type: functional, cell-based
BV-2 [20] = assay: Inhibition of MAPK/JNK signalling pathway in LPS-induced mouse BV-2 cells assessed as reduction in JNK phosphorylation level at 10 uM incubated for 24 hrs by Western blot analysis; type: cell-based
BV-2 [21] = assay: Antiinflammatory activity against mouse BV-2 cells assessed as reduction in LPS-induced IL-1beta mRNA expression measured after 24 hrs by qRT-PCR analysis; type: functional, cell-based; conditions: dose 1.25-10 µM
BV-2 [22] = assay: Inhibition of NF-kappaB pathway in LPS-induced mouse BV-2 cells assessed as reduction in p65 protein expression level at 10 uM incubated for 24 hrs by Western blot analysis; type: cell-based
BV-2 [23] = assay: Antiinflammatory activity against mouse BV-2 cells assessed as reduction in LPS-induced IL-6 mRNA expression level measured after 24 hrs by qRT-PCR analysis; type: functional, cell-based; conditions: dose 1.25-10 µM

Chain of Acetylcholinesterase (Electrophorus electricus) (O42275 24-633 limits assumed): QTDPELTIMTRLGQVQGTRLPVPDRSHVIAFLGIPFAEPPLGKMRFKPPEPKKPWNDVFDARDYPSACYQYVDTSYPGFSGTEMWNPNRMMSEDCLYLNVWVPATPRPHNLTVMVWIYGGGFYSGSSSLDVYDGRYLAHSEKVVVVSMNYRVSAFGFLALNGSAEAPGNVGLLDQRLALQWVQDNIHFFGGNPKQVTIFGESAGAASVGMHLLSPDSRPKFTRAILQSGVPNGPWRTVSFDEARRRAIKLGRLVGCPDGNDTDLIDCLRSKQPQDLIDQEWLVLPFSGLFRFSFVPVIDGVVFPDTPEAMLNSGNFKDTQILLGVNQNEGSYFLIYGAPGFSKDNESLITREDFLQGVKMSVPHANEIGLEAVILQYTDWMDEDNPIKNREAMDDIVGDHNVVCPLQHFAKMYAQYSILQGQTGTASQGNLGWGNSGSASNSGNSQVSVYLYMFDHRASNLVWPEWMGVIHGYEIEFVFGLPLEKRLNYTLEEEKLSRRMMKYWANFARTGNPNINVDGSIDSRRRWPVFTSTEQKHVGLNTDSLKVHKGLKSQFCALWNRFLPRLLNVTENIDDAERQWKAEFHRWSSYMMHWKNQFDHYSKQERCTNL
Chain of Cholinesterase (Equus caballus) (P81908 whole entry): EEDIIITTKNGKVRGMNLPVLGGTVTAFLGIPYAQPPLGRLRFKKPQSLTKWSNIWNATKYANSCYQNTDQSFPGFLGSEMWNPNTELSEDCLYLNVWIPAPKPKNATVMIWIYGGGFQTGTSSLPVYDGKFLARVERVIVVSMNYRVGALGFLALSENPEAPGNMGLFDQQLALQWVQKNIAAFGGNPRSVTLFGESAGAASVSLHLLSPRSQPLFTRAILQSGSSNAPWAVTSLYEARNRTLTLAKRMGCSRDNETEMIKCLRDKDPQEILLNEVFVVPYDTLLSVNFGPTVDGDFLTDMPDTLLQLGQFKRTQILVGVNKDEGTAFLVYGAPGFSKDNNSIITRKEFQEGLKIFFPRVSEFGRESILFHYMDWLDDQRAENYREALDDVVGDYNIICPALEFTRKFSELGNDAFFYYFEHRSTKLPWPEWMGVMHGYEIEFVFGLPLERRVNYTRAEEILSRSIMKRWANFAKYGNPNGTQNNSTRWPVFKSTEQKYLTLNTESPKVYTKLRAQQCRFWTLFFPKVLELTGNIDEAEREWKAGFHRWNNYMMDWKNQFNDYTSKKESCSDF
T1 sequence (P81908 whole entry): as above
Chain of Acetylcholinesterase (Electrophorus electricus, UniProt O42275) (O42275 whole entry): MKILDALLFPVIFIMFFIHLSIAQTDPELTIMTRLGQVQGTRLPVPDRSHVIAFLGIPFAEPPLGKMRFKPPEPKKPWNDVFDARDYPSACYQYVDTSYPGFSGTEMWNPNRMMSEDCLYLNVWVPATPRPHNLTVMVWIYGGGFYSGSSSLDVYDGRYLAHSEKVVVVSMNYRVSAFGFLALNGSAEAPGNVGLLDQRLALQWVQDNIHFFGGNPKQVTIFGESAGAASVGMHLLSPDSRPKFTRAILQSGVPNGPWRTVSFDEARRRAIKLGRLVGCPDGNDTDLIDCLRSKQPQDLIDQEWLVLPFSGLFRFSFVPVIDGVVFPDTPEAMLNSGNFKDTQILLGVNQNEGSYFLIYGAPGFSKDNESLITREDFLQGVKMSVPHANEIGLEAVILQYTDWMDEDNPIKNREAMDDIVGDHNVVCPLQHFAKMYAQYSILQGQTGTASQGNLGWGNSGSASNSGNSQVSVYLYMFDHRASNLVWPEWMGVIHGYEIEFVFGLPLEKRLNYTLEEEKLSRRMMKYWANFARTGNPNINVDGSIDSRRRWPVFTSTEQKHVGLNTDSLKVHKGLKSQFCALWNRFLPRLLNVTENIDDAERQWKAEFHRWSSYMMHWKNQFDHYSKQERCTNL
Chain of NACHT, LRR and PYD domains-containing protein 3 (Mus musculus) (Q8R4B8 whole entry, the tested form may be a part): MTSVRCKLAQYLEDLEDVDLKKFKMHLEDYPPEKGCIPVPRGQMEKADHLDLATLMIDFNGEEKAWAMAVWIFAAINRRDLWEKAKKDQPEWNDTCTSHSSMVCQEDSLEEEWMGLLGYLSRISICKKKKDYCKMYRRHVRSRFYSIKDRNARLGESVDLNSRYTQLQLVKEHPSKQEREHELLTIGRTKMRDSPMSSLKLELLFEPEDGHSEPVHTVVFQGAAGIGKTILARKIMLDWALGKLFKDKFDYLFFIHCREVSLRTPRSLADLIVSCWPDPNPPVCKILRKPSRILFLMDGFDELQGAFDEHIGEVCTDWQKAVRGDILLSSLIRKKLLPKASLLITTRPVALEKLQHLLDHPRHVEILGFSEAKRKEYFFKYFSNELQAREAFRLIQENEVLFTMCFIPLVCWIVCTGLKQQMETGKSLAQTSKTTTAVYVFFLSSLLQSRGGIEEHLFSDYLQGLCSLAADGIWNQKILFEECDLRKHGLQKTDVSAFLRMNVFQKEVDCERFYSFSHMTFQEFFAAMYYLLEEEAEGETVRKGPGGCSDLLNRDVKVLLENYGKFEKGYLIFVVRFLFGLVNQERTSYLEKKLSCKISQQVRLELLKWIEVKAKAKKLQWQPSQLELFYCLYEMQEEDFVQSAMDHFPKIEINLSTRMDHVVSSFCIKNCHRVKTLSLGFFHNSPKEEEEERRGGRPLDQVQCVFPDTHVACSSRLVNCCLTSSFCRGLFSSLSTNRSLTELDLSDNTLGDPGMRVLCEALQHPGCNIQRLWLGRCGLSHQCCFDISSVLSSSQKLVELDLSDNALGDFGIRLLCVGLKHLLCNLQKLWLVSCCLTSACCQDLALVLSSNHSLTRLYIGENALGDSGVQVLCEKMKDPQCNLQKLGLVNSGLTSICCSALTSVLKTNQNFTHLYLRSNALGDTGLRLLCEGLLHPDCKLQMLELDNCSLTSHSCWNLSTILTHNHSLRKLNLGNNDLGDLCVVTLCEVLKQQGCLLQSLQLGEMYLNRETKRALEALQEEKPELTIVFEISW
Chain of Cholinesterase (Homo sapiens, UniProt P06276) (P06276 whole entry): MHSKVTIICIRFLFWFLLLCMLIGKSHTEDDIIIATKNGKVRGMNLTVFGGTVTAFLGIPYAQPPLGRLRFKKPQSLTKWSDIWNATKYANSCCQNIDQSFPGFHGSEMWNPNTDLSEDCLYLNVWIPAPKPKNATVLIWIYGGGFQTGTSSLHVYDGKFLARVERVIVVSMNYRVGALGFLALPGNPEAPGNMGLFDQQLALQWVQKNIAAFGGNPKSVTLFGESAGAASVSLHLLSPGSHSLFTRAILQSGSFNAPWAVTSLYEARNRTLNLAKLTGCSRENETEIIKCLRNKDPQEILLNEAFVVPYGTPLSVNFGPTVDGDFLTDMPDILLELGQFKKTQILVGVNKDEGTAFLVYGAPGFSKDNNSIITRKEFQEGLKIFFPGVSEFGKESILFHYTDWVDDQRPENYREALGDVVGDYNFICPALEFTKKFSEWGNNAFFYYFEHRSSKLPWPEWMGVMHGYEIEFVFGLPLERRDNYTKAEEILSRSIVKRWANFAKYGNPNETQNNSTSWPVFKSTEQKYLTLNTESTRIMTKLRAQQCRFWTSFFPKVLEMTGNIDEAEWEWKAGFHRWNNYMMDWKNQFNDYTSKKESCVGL
Chain of Acetylcholinesterase (Homo sapiens, UniProt P22303) (P22303 whole entry): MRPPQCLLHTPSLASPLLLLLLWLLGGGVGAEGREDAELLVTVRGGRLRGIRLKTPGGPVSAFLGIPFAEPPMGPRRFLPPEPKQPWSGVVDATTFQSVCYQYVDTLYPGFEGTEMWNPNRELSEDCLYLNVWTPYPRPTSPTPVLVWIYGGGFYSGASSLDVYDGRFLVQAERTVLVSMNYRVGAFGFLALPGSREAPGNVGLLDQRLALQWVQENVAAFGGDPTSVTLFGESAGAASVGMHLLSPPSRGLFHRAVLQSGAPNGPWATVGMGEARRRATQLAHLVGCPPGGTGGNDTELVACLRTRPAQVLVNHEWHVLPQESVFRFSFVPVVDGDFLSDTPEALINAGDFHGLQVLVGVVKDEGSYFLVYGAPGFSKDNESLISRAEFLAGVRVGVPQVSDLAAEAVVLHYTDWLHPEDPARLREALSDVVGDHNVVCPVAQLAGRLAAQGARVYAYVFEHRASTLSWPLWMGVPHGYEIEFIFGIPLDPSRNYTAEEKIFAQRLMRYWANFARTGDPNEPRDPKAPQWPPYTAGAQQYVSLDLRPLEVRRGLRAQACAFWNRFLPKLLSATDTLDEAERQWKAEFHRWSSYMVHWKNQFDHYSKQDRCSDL

For O=c1[nH]c(C2CCN(Cc3ccccc3)CC2)nc2ccc([N+](=O)[O-])cc12, the IC50 (Acetylcholinesterase [1]) was 6.86 µM, the inhibition [2] was 59.6% and the inhibition [3] was “inactive”. For the same molecule, the IC50 (Cholinesterase [4]) was greater than 20 µM and the Activity (RAW264.7 [5]) was 40.4%.

Work on COc1cc(OC)c2c(=O)[nH]c(-c3cccs3)nc2c1 yielded an inhibition [2] of 44.2% and an inhibition [3] of 35.3%.

Work on C[C@@H]1C[C@H]2[C@@H]3CCC4=CC(=O)C=C[C@]4(C)[C@@]3(F)[C@@H](O)C[C@]2(C)[C@@]1(O)C(=O)CO [DEXAMETHASONE] yielded an IC50 (RAW264.7 [6]) of 11.5 µM and an Activity (RAW264.7 [5]) of 60.3%.

Work on COc1cc(OC)c2c(=O)[nH]c(-c3ccc(O[C@@H]4O[C@H](CO)[C@@H](O)[C@@H](O)[C@H]4O)cc3)nc2c1 yielded an inhibition [2] of 32.8% and an inhibition [3] of 11.3%.

COc1cc(-c2nc3ccc(NC(=O)c4ccc(Br)cc4)cc3c(=O)[nH]2)cc(OC)c1OC was tested, and the inhibition [2] was 23.5% and the inhibition [3] was 8.3%.

For COc1cc(-c2nc3ccc(NC(=O)CCl)cc3c(=O)[nH]2)cc(OC)c1OC, the inhibition [2] was 32.5% and the inhibition [3] was 9.51%.

In the case of COc1cc(-c2nc3ccc(NCc4ccc(N5CCN(C)CC5)cc4)cc3c(=O)[nH]2)cc(OC)c1OC, the inhibition [2] is reported as 23.6% and the inhibition [3] is reported as “inactive”.

CN1CCN(c2ccc(-c3nc4ccc(Br)cc4c(=O)[nH]3)cc2)CC1 was tested, and the IC50 (Acetylcholinesterase [1]) was 16.1 µM, the inhibition [2] was 60.8% and the inhibition [3] was 31.2%. The IC50 (Cholinesterase [4]) was greater than 20 µM and the Activity (RAW264.7 [5]) was 42.7%.

COc1cc(OC)c2c(=O)[nH]c(-c3ccc(N4CCN(C(=O)OC(C)(C)C)CC4)cc3)nc2c1 was tested, and the inhibition [2] was 37.4% and the inhibition [3] was “inactive”.

COc1cc(OC)c2c(=O)[nH]c(C(=O)c3ccc(O)cc3)nc2c1 was tested, and the inhibition [2] was 7.74% and the inhibition [3] was “inactive”.

With CN1CCN(c2ccc(-c3nc4ccc(N)cc4c(=O)[nH]3)cc2)CC1 the inhibition [2] was 58.6% and the inhibition [3] was 3.32%.

CON(C)C(=O)Oc1ccccc1C(=O)NCCc1c[nH]c2ccccc12 was tested, and the IC50 (Acetylcholinesterase [7]) was 3.24 µM and the IC50 (Cholinesterase [8]) was 1.84 µM.

For COc1cc(OC)c2c(=O)[nH]c(-c3ccc(-c4ccncc4)cc3)nc2c1, the inhibition [2] was 30.9% and the inhibition [3] was 1.72%.

For O=c1[nH]c(C2CCN(Cc3ccccc3)CC2)nc2ccc(Br)cc12, the inhibition [2] was 31.7% and the inhibition [3] was 14.6%.

Molecule COc1cc(OC)c2c(=O)[nH]c(-c3cc(OC)c(OC)c(OC)c3)nc2c1 has an inhibition [2] of 38.7% and an inhibition [3] of 10.9%.

With COc1cc(-c2nc3ccccc3c(=O)[nH]2)cc(OC)c1OC the inhibition [2] was 47.9% and the inhibition [3] was 32.9%.

COc1cc(OC)c2c(=O)[nH]c(-c3ccc(N4CCNCC4)cc3)nc2c1 was tested, and the inhibition [2] was 44.2% and the inhibition [3] was “inactive”.

In the case of CCN(CC)c1ccc(-c2nc3cc(OC)cc(OC)c3c(=O)[nH]2)cc1, the inhibition [2] is reported as 23.7% and the inhibition [3] is reported as “inactive”.

Molecule CN1CCN(c2ccc(-c3nc4ccccc4c(=O)[nH]3)cc2)CC1 has an IC50 (Acetylcholinesterase [1]) of 30.4 µM, an inhibition [2] of 68.1% and an inhibition [3] of 24.1%. For the same molecule, the IC50 (Cholinesterase [4]) was greater than 20 µM and the Activity (RAW264.7 [5]) was 45.6%.

For COc1cc(OC)c2c(=O)[nH]c(-c3nc[nH]c3C)nc2c1, the IC50 (Acetylcholinesterase [1]) was 28.1 µM, the inhibition [2] was 60.8% and the inhibition [3] was 25.9%. The IC50 (Cholinesterase [4]) was greater than 20 µM and the Activity (RAW264.7 [5]) was 61.2%.

With COc1cc(-c2nc3ccc(NCC4CCN(Cc5ccccc5)CC4)cc3c(=O)[nH]2)cc(OC)c1OC the IC50 (Acetylcholinesterase [1]) was 4.31 µM, the inhibition [9] was “Active” and the inhibition [2] was 69%. The inhibition [3] was 68.6%, the IC50 (Cholinesterase [4]) was 11.2 µM and the Activity (BV-2 [10]) was “Toxic”. The inhibition [11] was “Active” and the Activity (RAW264.7 [5]) was 94%.

COc1cc(-c2nc3ccc(NC(=O)c4ccc(Cl)cc4)cc3c(=O)[nH]2)cc(OC)c1OC was tested, and the inhibition [2] was 10.6% and the inhibition [3] was 14.9%.

Work on COc1cc(OC)c2c(=O)[nH]c(-c3ccc(N4CCOCC4)cc3)nc2c1 yielded an inhibition [2] of 47.3% and an inhibition [3] of 16.5%.

Molecule O=c1[nH]c(C2CCN(Cc3ccccc3)CC2)nc2ccccc12 has an inhibition [2] of 63.3% and an inhibition [3] of 48.6%.

COc1cc(OC)c2c(=O)[nH]c(-c3c[nH]cn3)nc2c1 gave an inhibition [2] of 40.4% and an inhibition [3] of 13.1%.

COc1cc(-c2nc3ccc(NC(=O)CCN4CCN(C)CC4)cc3c(=O)[nH]2)cc(OC)c1OC was tested, and the inhibition [2] was 24.7% and the inhibition [3] was “inactive”.

CN1CCN(c2ccc(-c3nc4ccc([N+](=O)[O-])cc4c(=O)[nH]3)cc2)CC1 gave an IC50 (Acetylcholinesterase [1]) of 5.49 µM, an inhibition [2] of 69.4% and an inhibition [3] of 63.7%. It also gave an IC50 (Cholinesterase [4]) greater than 100 µM and an Activity (RAW264.7 [5]) of 27.1%.

Work on COc1cc(-c2nc3ccc(NC(=O)CCN4CCCCC4)cc3c(=O)[nH]2)cc(OC)c1OC yielded an inhibition [2] of 26.1% and an inhibition [3] of 14.6%.

COc1cc(-c2nc3ccc(NC(=O)CCN4CCC(O)CC4)cc3c(=O)[nH]2)cc(OC)c1OC was tested, and the inhibition [2] was 20.2% and the inhibition [3] was 15.8%.

For COc1cc(OC)c2c(=O)[nH]c(-c3cn(Cc4ccccc4)cn3)nc2c1, the Ki (Cholinesterase [12]) was 0.74 µM, the IC50 (Acetylcholinesterase [1]) was 7.01 µM and the inhibition [13] was “Active”. For the same molecule, the Kis [14] was 8.58 µM, the inhibition [2] was 87.9% and the inhibition [3] was 95%. The IC50 (Cholinesterase [4]) was 0.83 µM, the Activity (BV-2 [10]) was “Toxic” and the Activity (RAW264.7 [5]) was 33.4%.

Work on COc1cc(OC)c2c(=O)[nH]c(-c3c[nH]c4ccccc34)nc2c1 yielded an inhibition [2] of 31.9% and an inhibition [3] of 8.91%.

With COc1cc(OC)c2c(=O)[nH]c(-c3ccc(N4CCN(C)CC4)cc3)nc2c1 the inhibition (BV-2 [15]) was “Active”, the IC50 (Acetylcholinesterase [1]) was 5.04 µM and the inhibition [16] was “Active”. The Activity (BV-2 [17]) was “Dose-Dependent Effect”, the Activity (BV-2 [18]) was “Dose-Dependent Effect” and the Activity (BV-2 [19]) was “Active”. The inhibition [2] was 91.8%, the IC50 (RAW264.7 [6]) was 3.29 µM and the inhibition (BV-2 [20]) was “Active”. For the same molecule, the Activity (BV-2 [21]) was “Dose-Dependent Effect”, the inhibition [3] was 38.7% and the IC50 (Cholinesterase [4]) was greater than 20 µM. For the same molecule, the Activity (BV-2 [10]) was “Non-Toxic”, the inhibition [11] was “Active” and the inhibition (BV-2 [22]) was “Active”. For the same molecule, the Activity (RAW264.7 [5]) was 116.4% and the Activity (BV-2 [23]) was “Dose-Dependent Effect”.

COc1cc(-c2nc3ccc(Br)cc3c(=O)[nH]2)cc(OC)c1OC showed an inhibition [2] of 33.8% and an inhibition [3] of 12.4%.

COc1cc(OC)c2c(=O)[nH]c(C3CCN(Cc4ccccc4)CC3)nc2c1 was tested, and the IC50 (Acetylcholinesterase [1]) was 7.88 µM, the inhibition [2] was 83.4% and the IC50 (RAW264.7 [6]) was 21.3 µM. For the same molecule, the inhibition [3] was 59.1%, the IC50 (Cholinesterase [4]) was 36.9 µM and the Activity (RAW264.7 [5]) was 60.5%.

Work on COc1cc(-c2nc3ccc(NC(=O)c4ccc(F)cc4)cc3c(=O)[nH]2)cc(OC)c1OC yielded an inhibition [2] of 6.3% and an inhibition [3] of 12.7%.

In the case of COc1cc(-c2nc3ccc([N+](=O)[O-])cc3c(=O)[nH]2)cc(OC)c1OC, the inhibition [2] is reported as 2.52% and the inhibition [3] is reported as “inactive”.

COc1cc(-c2nc3ccc(NC(=O)CN4CCCCC4)cc3c(=O)[nH]2)cc(OC)c1OC was tested, and the inhibition [2] was 24.6% and the inhibition [3] was “inactive”.

In the case of COc1cc(OC)c2c(=O)[nH]c(C(=O)c3cc(OC)c(OC)c(OC)c3)nc2c1, the inhibition [2] is reported as 23.1% and the inhibition [3] is reported as “inactive”.

For COc1cc(OC)c2c(=O)[nH]c(-c3ccc(N4CCN(CCO)CC4)cc3)nc2c1, the inhibition [2] was 62.4% and the inhibition [3] was 3.32%.
